The source of these data is patent US10072034B2, “Kinase inhibitors” (Respivert Limited, priority 2016, dated 2018).

The target of one test is Syk (Homo sapiens (Human), UniProt P43405). The experiment in a line: Syk enzyme inhibition (FRET, Z-LYTE). The format is biochemical. On the procedure: (§1) The enzyme inhibitory activities of compounds disclosed herein are determined by FRET using synthetic peptides labelled with both donor and acceptor fluorophores (Z-LYTE, Invitrogen Ltd., Paisley, UK).
(§2) The inhibitory activities of compounds of the invention against c-Src and Syk enzymes (Invitrogen), are evaluated in a similar fashion to that described hereinabove. The relevant enzyme (3000 ng/mL or 2000 ng/mL respectively, 2.5 μL) is incubated with the test compound (either 1 μg/mL, 0.1 μg/mL, 0.01 μg/mL, or 0.001 μg/mL, 2.5 μL each) for 2 hr at RT. The FRET peptides (8 μM. 2.5 μL), and appropriate ATP solutions (2.5 μL, 800 μM for c-Src, and 60 μM ATP for Syk) are then added to the enzymes/compound mixtures and the mixture incubated for 1 hr. Development reagent (protease, 5 μL) is added for 1 hr prior to detection in a fluorescence microplate reader (Varioskan® Flash, ThermoFisher Scientific).
(§3) In all cases, the site-specific protease cleaves non-phosphorylated peptide only and eliminates the FRET signal. Phosphorylation levels of each reaction are calculated using the ratio of coumarin emission (donor) over fluorescein emission (acceptor), for which high ratios indicate high phosphorylation and low ratios indicate low phosphorylation levels. […]

In test [1] the test system is IFN gamma release in PBMCs. Nature of the test: IFN gamma release in CD3/CD28 stimulated PBMC cells (assay (c)). The format is cell-based. The following applies: Homo sapiens, read-out: IC50 Values in PBMCs IFNγ. As for the experimental part: PBMCs from healthy subjects are separated from whole blood using a density gradient (Lymphoprep, Axis-Shield Healthcare). Cells are added to a 96 well plate pre-coated with a mixture of CD3/CD28 monoclonal antibodies (0.3 μg/mL eBioscience and 3 μg/mL BD Pharmingen respectively). Compound at the desired concentration is then added to the wells and the plate left for 3 days under normal tissue culture conditions. Supernatants are harvested and IL-2 and IFN gamma release determined by Sandwich ELISA (Duo-set, R&D System). The IC50 is determined from the dose response curve.

The target of the next test is c-Src (Homo sapiens (Human), UniProt P12931). The experiment in a line: c-Src enzyme inhibition (FRET, Z-LYTE). Type of test: biochemical. As for the experimental part: as §1, §2, §3
c-Src, sequence (P12931 whole entry, looked up): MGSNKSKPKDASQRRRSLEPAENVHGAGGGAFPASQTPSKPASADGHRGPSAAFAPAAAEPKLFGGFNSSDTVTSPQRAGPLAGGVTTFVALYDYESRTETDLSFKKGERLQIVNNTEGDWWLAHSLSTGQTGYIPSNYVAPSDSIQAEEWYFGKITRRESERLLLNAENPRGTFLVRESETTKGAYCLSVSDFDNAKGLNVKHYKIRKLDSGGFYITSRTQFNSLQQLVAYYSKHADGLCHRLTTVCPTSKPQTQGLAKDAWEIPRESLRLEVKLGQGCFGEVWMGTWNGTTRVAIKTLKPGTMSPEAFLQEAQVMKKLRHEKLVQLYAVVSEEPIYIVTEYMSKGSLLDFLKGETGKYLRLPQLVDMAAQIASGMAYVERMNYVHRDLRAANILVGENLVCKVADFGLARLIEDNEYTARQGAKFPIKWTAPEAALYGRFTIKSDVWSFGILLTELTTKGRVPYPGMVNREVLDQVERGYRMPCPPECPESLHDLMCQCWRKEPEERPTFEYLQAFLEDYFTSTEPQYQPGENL

Broadly, the IC50 is the concentration that inhibits the measured activity by half.

As to `COc1cc(Nc2cc(Oc3ccc(NC(=O)Nc4cc(C(C)(C)C)cc(NS(C)(=O)=O)c4OC)c4ccccc34)ccn2)cc(OCCOCCOCC(=O)O)c1` [Example 3], the IC50 stood at 12 nM against Syk, 31.8 nM in test [1] and 18 nM on c-Src.
